Measurements: US20260265195A1, “SARM1 MODULATORS, PREPARATIONS, AND USES THEREOF” (SIRONAX LTD, priority 2022, published 2026)

Target: T1, SARM1 (50-724) (Homo sapiens, UniProt Q6SZW1)
T1 construct: Purified SARM1 (50-724) with a final concentration of 2 nM
T1 sequence (Q6SZW1 50-724): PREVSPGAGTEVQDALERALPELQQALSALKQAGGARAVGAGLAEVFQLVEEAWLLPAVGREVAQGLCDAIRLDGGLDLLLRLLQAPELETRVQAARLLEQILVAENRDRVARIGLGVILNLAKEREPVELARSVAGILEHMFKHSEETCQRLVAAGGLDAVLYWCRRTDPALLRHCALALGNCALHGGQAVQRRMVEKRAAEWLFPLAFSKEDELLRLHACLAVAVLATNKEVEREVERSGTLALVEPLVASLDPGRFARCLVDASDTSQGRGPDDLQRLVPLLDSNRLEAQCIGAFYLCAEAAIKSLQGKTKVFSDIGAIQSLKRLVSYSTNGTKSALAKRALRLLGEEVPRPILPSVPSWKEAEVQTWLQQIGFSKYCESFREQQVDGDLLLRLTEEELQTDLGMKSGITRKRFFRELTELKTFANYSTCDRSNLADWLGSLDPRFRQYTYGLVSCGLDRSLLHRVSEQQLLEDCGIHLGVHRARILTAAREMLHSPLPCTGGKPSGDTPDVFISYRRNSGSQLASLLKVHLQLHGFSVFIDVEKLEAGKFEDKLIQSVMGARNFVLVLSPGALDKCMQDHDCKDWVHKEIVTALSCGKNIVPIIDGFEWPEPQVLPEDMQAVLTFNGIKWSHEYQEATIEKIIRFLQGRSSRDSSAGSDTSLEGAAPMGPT
Test: SARM1 (50-724) enzymatic assay (NMN-activated NAD+ hydrolysis, LC-MS/MS readout)
Type: biochemical
Settings: purified SARM1 (50-724) 2 nM, 200 μM NMN activator, 100 μM NAD+ substrate, 1 h at room temperature, read-out: IC50 (SARM1 inhibitory activity)
In short: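 NMN-activated NAD+ hydrolysis: compound pre-incubated 15 min at room temperature with 2 nM SARM1 (50-724) at 1% DMSO in DPBS; 100 μM NAD+ plus 200 μM NMN added and reacted 1 h at RT. Acetonitrile quench, LC-MS/MS readout.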

SMILES | IC50 [µM]
O=C(c1nc2cc(C(F)(F)F)ccc2[nH]1)N(CCO)c1cccc(Cl)c1Cl [Compound 103, N-(2,3-dichlorophenyl)-(2-hydroxyethyl)-5-(trifluoromethyl)-1H-benzo[d]imidazole-2-carboxamide] | ≤ 0.1
CC1(c2ccc3[nH]c(C(=O)N(CCO)c4cccc(Cl)c4Cl)nc3c2)COC1 [Compound 195] | ≤ 0.1
O=C(c1nc2cc(C(F)(F)F)ccc2[nH]1)N(CCO)[C@@H]1CCCC[C@H]1OC(F)(F)F (racemic) [Compound 60, N-(2-hydroxyethyl)-N-((1R,2R)-2-(trifluoromethoxy)cyclohexyl)-5-(trifluoromethyl)-1H-benzo[d]imidazole-2-carboxamide] | 0.101 to 0.5
CN(C(=O)c1[nH]ccc1CO)C1CCCC1 [Compound 45, N-cyclopentyl-3-(hydroxymethyl)-N-mcthyl-1H-pyrrole-2-carboxamide] | ≥ 1
CS(=O)(=O)CCN(C(=O)c1nc2cc(C(F)(F)F)ccc2[nH]1)c1cccc(F)c1Cl [Compound 229, N-(2-chloro-3-fluorophenyl)-N-(2-(methylsulfonyl)ethyl)-5-(trifluoromethyl)-1H-benzo[d]imidazole-2-carboxamide] | ≤ 0.1
O=C(c1nc2cc(C(F)(F)F)ccc2[nH]1)N(CCN1CCOCC1)c1cccc(F)c1Cl [Compound 214, N-(2-chloro-3-fluorophenyl)-N-(2-morpholinoethyl)-5-(trifluoromethyl)-1H-benzo[d]imidazole-2-carboxamide] | 0.101 to 0.5
Cc1ccc2[nH]c(C(=O)N(C)C3CCCC3)nc2n1 [Compound 52, N-cyclopentyl-N,5-dimethyl-1H-imidazo[4,5-b]pyridine-2-carboxamide] | ≥ 1
O=C(c1nc2cc(C3CC3)ccc2[nH]1)N(CCO)c1cccc(Cl)c1Cl [Compound 190] | ≤ 0.1
Cc1nsc(N(CC2(F)COC2)C(=O)c2nc3cc(C(F)(F)F)ccc3[nH]2)c1Cl [Compound 188, N-(4-chloro-3-methylisothiazol-5-yl)-N-((3-fluorooxetan-3-yl)methyl)-5-(trifluoromethyl)-1H-benzo[d]imidazole-2-carboxamide] | 0.101 to 0.5
CN(C(=O)c1nc2c(C3CC3)cccc2[nH]1)C1CCCC1 [Compound 93, N-cyclopentyl-4-cyclopropyl-N-methyl-1H-benzo[d]imidazole-2-carboxamide] | 0.501 to 1
Cc1ccc2[nH]c(C(=O)N(C)C3CCCC3)c(CNc3nc(C(N)=O)cs3)c2c1 [Compound 73, 2-(((2-(cyclopentyl(methyl)carbamoyl)-5-methyl-1H-indol-3-yl)methyl)amino)thiazole-4-carboxamide] | 0.101 to 0.5
O=C(c1nc2cc(-c3cscn3)ccc2[nH]1)N(CCO)c1cccc(Cl)c1Cl [Compound 161] | ≤ 0.1
Cc1c(-c2ccn[nH]2)ccc2[nH]c(C(=O)N(CC3COC3)c3cccc(Cl)c3Cl)nc12 [Compound 142] | ≥ 1
Cc1ccc2[nH]c(C(=O)N(C)C3CCNCC3)c(CNc3ccccn3)c2c1 [Compound 84, N,5-dimethyl-N-(piperidin-4-yl)-3-((pyridin-2-ylamino)methyl)-1H-indole-2-carboxamide] | ≥ 1
CN(C(=O)C1Cc2ccccc2N1)C1CCCC1 (stereo not shown) [Compound 55, N-cyclopentyl-N-methylindoline-2-carboxamide] | ≥ 1
Cc1ccc2[nH]c(C(=O)N(C)C3CCCC3)c(CNc3cn[nH]c3)c2c1 [Compound 81, 3-(((1H-pyrazol-4-yl)amino)methyl)-N-cyclopentyl-N,5-dimethyl-1H-indole-2-carboxamide] | ≥ 1
Cc1ccc2[nH]c(C(=O)N(C)C3CCN(C)CC3)c(CNc3ccccn3)c2c1 [Compound 86, N,5-dimethyl-N-(1-methylpiperidin-4-yl)-3-((pyridin-2-ylamino)methyl)-1H-indole-2-carboxamide] | ≥ 1
Cc1ccnc(N(CC(F)(F)CO)C(=O)c2nc3cc(C(F)(F)F)ccc3[nH]2)c1Cl [Compound 156, N-(3-chloro-4-methylpyridin-2-yl)-N-(2,2-difluoro-3-hydroxypropyl)-5-(trifluoromethyl)-1H-benzo[d]imidazole-2-carboxamide] | 0.101 to 0.5
Cc1c(Cl)ccnc1N(CCO)C(=O)c1nc2cc(C(F)(F)F)ccc2[nH]1 [Compound 145, N-(4-chloro-3-methylpyridin-2-yl)-N-(2-hydroxyethyl)-5-(trifluoromethyl)-1H-benzo[d]imidazole-2-carboxamide] | 0.101 to 0.5

SMILES | IC50 [µM]
CC(C)(O)CCN(C(=O)c1nc2cc(C(F)(F)F)ccc2[nH]1)c1cccc(Cl)c1Cl [Compound 198, N-(2,3-dichlorophenyl)-N-(3-hydroxy-3-methylbutyl)-5-(trifluoromethyl)-1H-benzo[d]imidazole-2-carboxamide] | ≤ 0.1
Cc1ccc2[nH]c(C(=O)N(C)C3CCCC(C)C3C)c(CO)c2c1 (stereo not shown) [Compound 35, N-(2,3-dimethylcyclohexyl)-3-(hydroxymethyl)-N,5-dimethyl-1H-indole-2-carboxamide] | ≥ 1
O=C(CN(C(=O)c1nc2cc(C(F)(F)F)ccc2[nH]1)c1cccc(Cl)c1Cl)N1CCC1 [Compound 202, N-(2-(azetidin-1-yl)-2-oxoethyl)-N-(2,3-dichlorophenyl)-5-(trifluoromethyl)-1H-benzo[d]imidazole-2-carboxamide] | ≤ 0.1
O=C(c1nc2cc(C(F)(F)F)ccc2[nH]1)N(CCOCCO)c1cccc(Cl)c1Cl [Compound 128, N-(2,3-dichlorophenyl)-N-(2-(2-hydroxyethoxy)ethyl)-5-(trifluoromethyl)-1H-benzo[d]imidazole-2-carboxamide] | ≤ 0.1
Cc1cnc2[nH]c(C(=O)N(C)C3CCCC3)c(CO)c2c1 [Compound 38, N-cyclopentyl-3-(hydroxymethyl)-N,5-dimethyl-1H-pyrrolo[2,3-b]pyridine-2-carboxamide] | ≥ 1
CC(C)c1ccc2[nH]c(C(=O)N(C)C3CCCC3)c(CO)c2c1 [Compound 27, N-cyclopenty1-3-(hydroxymethyl)-5-isopropyl-N-methyl-1H-indole-2-carboxamide] | 0.101 to 0.5
Cn1nc(N(CCO)C(=O)c2nc3cc(C(F)(F)F)ccc3[nH]2)c(Cl)c1Cl [Compound 110, N-(4,5-dichloro-1-methyl-1H-pyrazol-3-yl)-N-(2-hydroxyethyl)-5-(trifluoromethyl)-1H-benzo[d]imidazole-2-carboxamide] | ≤ 0.1
CN(C(=O)c1nc2c(N3CCOCC3)cccc2[nH]1)C1CCCC1 [Compound 101, N-cyclopentyl-N-methyl-4-morpholino-1H-benzo[d]imidazole-2-carboxamide] | ≥ 1
COc1ccc(Cl)c(N(CC(F)(F)CO)C(=O)c2nc3cc(C(F)(F)F)ccc3[nH]2)n1 [Compound 207, N-(3-chloro-6-methoxypyridin-2-yI)-N-(2,2-difluoro-3-hydroxypropyl)-5-(trifluoromethyl)-1H-benzo[d]imidazole-2-carboxamide] | 0.101 to 0.5
Cc1ccc2[nH]c(C(=O)N(C)C3CCCC3)c(CNc3nccs3)c2c1 [Compound 76, N-cyclopentyl-N,5-dimethyl-3-((thiazol-2-ylamino)methyl)-1H-indole-2-carboxamide] | 0.101 to 0.5
Cc1ccc2[nH]c(C(=O)N(C)c3ccc(C#N)cc3Cl)c(CO)c2c1 [Compound 9, N-(2-chloro-4-cyanophenyl)-3-(hydroxymethyl)-N,5-dimethyl-1H-indole-2-carboxamide] | ≥ 1
O=C(c1nc2cc(C(F)(F)F)cc(F)c2[nH]1)N(c1cccc(F)c1Cl)C1CCS(=O)(=O)CC1 [Compound 130] | ≤ 0.1
Cc1cccc2c(CO)c(C(=O)N(C)C3CCCC3)[nH]c12 [Compound 39, N-cyclopentyl-3-(hydroxymethyl)-N,7-dimethyl-1H-indole-2-carboxamide] | ≥ 1
Cc1ccc2[nH]c(C(=O)N(C)C3CCCC3)c(CNc3cc(C)[nH]n3)c2c1 [Compound 83, N-cyclopentyl-N,5-dimethyl-3-(((5-methyl-1H-pyrazol-3-yl)amino)methyl)-1H-indole-2-carboxamide] | 0.101 to 0.5
O=C(c1nc2cc(C(F)(F)F)ccc2[nH]1)N(CC(F)(F)CO)c1ccc(F)cc1Cl [Compound 216, N-(2-chloro-4-fluorophenyl)-N-(2,2-difluoro-3-hydroxypropyl)-5-(trifluoromethyl)-1H-benzo[d]imidazole-2-carboxamide] | ≤ 0.1
Cc1ccc2[nH]c(C(=O)N(C)c3cccc(Cl)c3Cl)c(CO)c2c1 [Compound 1, N-(2,3-dichlorophenyl)-3-(hydroxymethyl)-N,5-dimethyl-1H-indole-2-carboxamide] | ≤ 0.1
COC(=O)C(C)(C)c1ccc2[nH]c(C(=O)N(CC3(F)COC3)c3cccc(Cl)c3Cl)nc2c1 [Compound 204] | ≤ 0.1
Cc1ccc2[nH]c(C(=O)N(C)c3cccc(Cl)c3)c(CO)c2c1 [Compound 24, N-(3-chlorophenyl)-3-(hydroxymethyl)-N,5-dimethyl-1H-indole-2-carboxamide] | ≥ 1
